From patent US20030129222A1, “Liposomal imexon” (priority 2000, published 2003)
Where two headings read alike, the source gives them in different places.

Key:
MCF7 breast, Sens = experiment: Cytotoxicity in tumor cell culture, SRB assay; format: cell-based, human
Description: (§1) Relative potencies of the N-substituted 2-cyanoaziridine-1-carboxamides in a panel of tumor cell cultures are compared in Table 3. This panel includes the following lines of human tumor cells: sensitive and imexon-resistant lines of multiple myeloma (Matsuoka et al., 1967); ovarian carcinoma resistant to standard drugs (Hamilton et al., 1984); melanoma with a slow growth fraction (Girard et al., 1973); breast carcinoma including sensitive, doxorubicin-resistant (P-glycoprotein-positive) (Taylor et al., 1991), and mitoxantrone-resistant (P-glycoprotein-negative) (Futscher et al., 1994) lines; sensitive and multidrug-resistant colon carcinoma (Noguchi et al., 1979; Dalton et al., 1988); and multidrug-resistant lung carcinoma (P-glycoprotein-negative) (Girard et al., 1973). It also has sensitive (Goldin et al., 1961) and multidrug-resistant (P-glycoprotein-positive) (Salmon and Hersh, 1994) murine L1210 leukemia cells.

[1] = tested on: MCF7 breast, mitox (mitoxantrone-resistant); experiment: Cytotoxicity in tumor cell culture, SRB assay; format: cell-based, human; conditions: Homo sapiens
Description: as §1

OVCAR3 ovarian = experiment: Cytotoxicity in tumor cell culture, SRB assay; format: cell-based, human
Description: as §1

A375 melan = experiment: Cytotoxicity in tumor cell culture, SRB assay; format: cell-based, human
Description: as §1

[2] = tested on: 8226 myeloma, Sens (drug-sensitive); experiment: Cytotoxicity in tumor cell culture, SRB assay; format: cell-based, human; conditions: Homo sapiens
Description: as §1

[3] = tested on: MCF7 breast, Dox (doxorubicin-resistant); experiment: Cytotoxicity in tumor cell culture, SRB assay; format: cell-based, human; conditions: Homo sapiens
Description: as §1

A-549 lung = experiment: Cytotoxicity in tumor cell culture, SRB assay; format: cell-based, human
Description: as §1

WiDr colon, res = experiment: Cytotoxicity in tumor cell culture, SRB assay; format: cell-based; conditions: Homo sapiens, WiDr, read-out: IC50 against human mouse tumors, WiDr colon res
Description: as §1

WiDr colon, Sens = experiment: Cytotoxicity in tumor cell culture, SRB assay; format: cell-based
Description: as §1

[4] = tested on: 8226 myeloma, Res (imexon-resistant); experiment: Cytotoxicity in tumor cell culture, SRB assay; format: cell-based; conditions: Homo sapiens, read-out: IC50 against human mouse tumors, 8226 myeloma Res
Description: as §1

[5] = substituent constant, from Hansch and Leo or calculated using Clog P software; cited from earlier work
PIE 2-3 sarcoma = conditions: cited from earlier work; for activity against PIE 2-3 sarcoma: 13: over a 10-fold dose range
leukocytes = conditions: in vivo; cited from earlier work
L1210 leukemia, Mdr = experiment: Cytotoxicity in tumor cell culture, MTT assay; format: cell-based, murine; conditions: Mus musculus
Description: as §1

L1210 leukemia, Sens = experiment: Cytotoxicity in tumor cell culture, MTT assay; format: cell-based, murine; conditions: Mus musculus
Description: as §1

[6] = tested on: fresh human tumor-colony-forming cells; experiment: Human tumor cloning assay, eight tumor cell types together; format: cell-based
Procedure: (§2) Assays of antitumor agents against fresh human tumor-colony-forming cells provide results that predict better the responses obtained in treating cancer patients than those obtained with long established human cell lines (Salmon et al., 1981). For this reason, the N-phenyl derivative 13 was tested against a variety of fresh human tumors obtained at the Arizona Cancer Center using established methodology (Salmon and Hersh, 1994).

[7] = tested on: Sarcoma (cloned fresh human tumors); experiment: Human tumor cloning assay, [3H]thymine uptake by tumor-colony-forming cells; format: cell-based; conditions: for no. sensitive: Sarcoma, No. tested 8
Procedure: as §2

[8] = tested on: Melanoma (cloned fresh human tumors); experiment: as above; format: cell-based; conditions: No. tested 10
Procedure: as §2

[9] = tested on: Myeloma (cloned fresh human tumors); experiment: as above; format: cell-based; conditions: No. tested 3
Procedure: as §2

[10] = tested on: Ovary (cloned fresh human tumors); experiment: as above; format: cell-based; conditions: No. tested 12
Procedure: as §2

[11] = tested on: Breast (cloned fresh human tumors); experiment: as above; format: cell-based; conditions: No. tested 4
Procedure: as §2

[12] = tested on: Lung (cloned fresh human tumors); experiment: as above; format: cell-based; conditions: No. tested 2
Procedure: as §2

[13] = tested on: Other Gynecologic (cloned fresh human tumors); experiment: as above; format: cell-based; conditions: No. tested 4
Procedure: as §2

[14] = tested on: Stomach (cloned fresh human tumors); experiment: as above; format: cell-based; conditions: No. tested 1
Procedure: as §2

[15] = tested on: transplanted syngeneic tumors; conditions: rodents; cited from earlier work
[16] = cited from earlier work
[17] = tested on: panel of tumor cells in culture; experiment: Panel of tumor cell cultures (all lines of Table 3); format: cell-based, human, murine
Description: A set of twenty 2-cyanoaziridine-1-carboxamides was synthesized from 2-cyanoaziridine and appropriate isocyanates. […] It is contemplated that one or more of these 2-cyanoaziridine-1-carboxamides derivatives may be used in combination with a lipid and/or another agent.

[18] = tested on: human lymphoma, melanoma, and prostate cancer cell lines; conditions: cited from earlier work
fresh human tumor cells = conditions: cited from earlier work
[19] = Homo sapiens, MCF7; read-out: IC50 against human mouse tumors, MCF7 breast Sens
[20] = MCF7, mitoxantrone-resistant, read-out: IC50 against human mouse tumors, MCF7 breast mitox
[21] = Homo sapiens, OVCAR-3; read-out: IC50 against human mouse tumors, OVCAR3 ovarian
[22] = Homo sapiens, A-375; read-out: IC50 against human mouse tumors, A375 melan
[23] = drug-sensitive line, read-out: IC50 against human mouse tumors, 8226 myeloma Sens
[24] = MCF7, doxorubicin-resistant, read-out: IC50 against human mouse tumors, MCF7 breast Dox
[25] = Homo sapiens, A549; read-out: IC50 against human mouse tumors, A-549 lung
[26] = Homo sapiens, WiDr; read-out: IC50 against human mouse tumors, WiDr colon Sens
[27] = 13 2.0 μM (second column of 13)
[28] = L1210, MTT assay, multidrug-resistant, read-out: IC50 against human mouse tumors, L1210 leukemia Mdr
[29] = L1210, MTT assay, read-out: IC50 against human mouse tumors, L1210 leukemia Sens

Structure (SMILES): N#CC1CN1C(N)=O (centres unmarked) [Compound 1, 2-cyanoaziridine-1-carboxamide]
- IC50 (MCF7 breast, Sens; Homo sapiens, MCF7, read-out: IC50 against human mouse tumors, MCF7 breast Sens): > 54 µM
- IC50 ([1]; MCF7, read-out: IC50 against human mouse tumors, MCF7 breast mitox): > 54 µM
- IC50 (OVCAR3 ovarian; Homo sapiens, OVCAR-3, read-out: IC50 against human mouse tumors, OVCAR3 ovarian): > 90 µM
- IC50 (A375 melan; Homo sapiens, A-375, read-out: IC50 against human mouse tumors, A375 melan): > 90 µM
- IC50 [2]: 288 µM
- IC50 ([2]; read-out: IC50 against human mouse tumors, 8226 myeloma Sens): 288 µM
- IC50 ([2]; read-out: Log(1/C) (converted)): 288 µM
- IC50 ([3]; MCF7, read-out: IC50 against human mouse tumors, MCF7 breast Dox): > 54 µM
- IC50 (A-549 lung; Homo sapiens, A549, read-out: IC50 against human mouse tumors, A-549 lung): > 280 µM
- IC50 (WiDr colon, res): > 280 µM
- IC50 (WiDr colon, Sens; Homo sapiens, WiDr, read-out: IC50 against human mouse tumors, WiDr colon Sens): > 280 µM
- IC50 [4]: 432 µM
- π [5]: 0
- activity against PIE 2-3 sarcoma (PIE 2-3 sarcoma): active
- toxicity (PIE 2-3 sarcoma; rat, in vivo): low toxicity
- effect on number of leukocytes (leukocytes): increased the number of leukocytes
- IC50 (L1210 leukemia, Mdr; L1210, read-out: IC50 against human mouse tumors, L1210 leukemia Mdr): > 90 µM
- IC50 (L1210 leukemia, Sens; L1210, read-out: IC50 against human mouse tumors, L1210 leukemia Sens): > 90 µM

Structure (SMILES): N#CC1CN1C(=O)Nc1ccccc1 (centres unmarked) [Compound 13, 2-Cyanoaziridine-1-(N-phenyl)carboxamide]
- IC50 (MCF7 breast, Sens; [19]): 2.9 µM
- IC50 [1, 20]: 4.3 µM
- IC50 (OVCAR3 ovarian; [21]): 6.8 µM
- IC50 (A375 melan; [22]): 11 µM
- IC50 ([2]; read-out: Log(1/C) (converted)): 5.37 µM
- IC50 ([2]; against sensitive myeloma, values repeated from Table 3 (μM there), read-out: IC50): 5.3 µM
- IC50 [2, 23]: 5.3 µM
- IC50 [3, 24]: 2.6 µM
- IC50 (A-549 lung; [25]): 9 µM
- IC50 (WiDr colon, res; multidrug-resistant): 12 µM
- IC50 (WiDr colon, Sens; [26]): 5 µM
- IC50 ([4]; line made resistant to imexon): 8 µM
- effectiveness compared with imexon ([6]; 13 at 0.2 μM versus imexon at 1.0 μM): about as effective as imexon
- activity and potency compared with imexon in fresh human tumor cells ([6]; listed as N-phenyl derivative): more potent and equally effective to imexon
- activity against the sarcoma cells compared with imexon [7]: superior
- no. sensitive ([7]; 13 0.2 μM): 2/2
- no. sensitive [7, 27]: 4
- no. sensitive ([7]; 13 2.0 μM (third column of 13)): 5
- no. sensitive ([8]; 13 0.2 μM): 3/5
- no. sensitive [8, 27]: 8
- no. sensitive ([8]; 13 2.0 μM (third column of 13)): 10
- no. sensitive ([9]; 13 0.2 μM): 2/2
- no. sensitive [9, 27]: 2/2
- no. sensitive ([9]; 13 2.0 μM (third column of 13)): 2/2
- no. sensitive ([10]; 13 0.2 μM): 3/10
- no. sensitive [10, 27]: 10/11
- no. sensitive ([10]; 13 2.0 μM (third column of 13)): 10
- no. sensitive ([11]; 13 0.2 μM): 2
- no. sensitive [11, 27]: 2
- no. sensitive ([11]; 13 2.0 μM (third column of 13)): 3
- no. sensitive ([12]; 13 0.2 μM): 0
- no. sensitive [12, 27]: 1
- no. sensitive ([12]; 13 2.0 μM (third column of 13)): 2
- no. sensitive ([13]; 13 0.2 μM): 0
- no. sensitive [13, 27]: 2
- no. sensitive ([13]; 13 2.0 μM (third column of 13)): 3
- no. sensitive ([14]; 13 0.2 μM): 1
- no. sensitive [14, 27]: 1
- no. sensitive ([14]; 13 2.0 μM (third column of 13)): 1
- π [5]: 2.00
- melting point: 88 to 90 °C
- activity against PIE 2-3 sarcoma (PIE 2-3 sarcoma): active
- IC50 (L1210 leukemia, Mdr; [28]): 11 µM
- IC50 (L1210 leukemia, Sens; [29]): 1.2 µM

Structure (SMILES): N=C1NC(=O)N2CC12 (centres unmarked) [Imexon, 4-imino-1,3-diazabicyclo[3.1.0]hexan-2-one]
- IC50 (MCF7 breast, Sens; [19]): > 18 µM
- IC50 [1, 20]: > 18 µM
- IC50 (OVCAR3 ovarian; [21]): 640 µM
- IC50 (A375 melan; [22]): 324 µM
- IC50 [2, 23]: 17 µM
- IC50 [3, 24]: > 18 µM
- IC50 (A-549 lung; [25]): > 72 µM
- IC50 (WiDr colon, res; multidrug-resistant): > 72 µM
- IC50 (WiDr colon, Sens; [26]): > 72 µM
- IC50 ([4]; line made resistant to imexon): 115 µM
- activity against transplanted syngeneic tumors [15]: active
- tolerability ([16]; Phase I): well-tolerated
- clinical response ([16]; patients with lung cancer, breast cancer, or liver cancer): objective responses or stabilization of the disease
- no. sensitive ([7]; Imexon 0.1 μM): 0/2
- no. sensitive ([7]; Imexon 1.0 μM): 2
- no. sensitive ([7]; Imexon 10 μM): 5
- no. sensitive ([8]; Imexon 0.1 μM): 3/5
- no. sensitive ([8]; Imexon 1.0 μM): 4
- no. sensitive ([8]; Imexon 10 μM): 8
- no. sensitive ([9]; Imexon 0.1 μM): 3
- no. sensitive ([9]; Imexon 1.0 μM): 3
- no. sensitive ([9]; Imexon 10 μM): 3
- no. sensitive ([10]; Imexon 0.1 μM): 4
- no. sensitive ([10]; Imexon 1.0 μM): 3/11
- no. sensitive ([10]; Imexon 10 μM): 8
- no. sensitive ([11]; Imexon 0.1 μM): 0
- no. sensitive ([11]; Imexon 1.0 μM): 2
- no. sensitive ([11]; Imexon 10 μM): 3
- no. sensitive ([12]; Imexon 0.1 μM): 0
- no. sensitive ([12]; Imexon 1.0 μM): 0
- no. sensitive ([12]; Imexon 10 μM): 2
- no. sensitive ([13]; Imexon 0.1 μM): 0
- no. sensitive ([13]; Imexon 1.0 μM): 0
- no. sensitive ([13]; Imexon 10 μM): 1
- no. sensitive ([14]; Imexon 0.1 μM): 0
- no. sensitive ([14]; Imexon 1.0 μM): 0
- no. sensitive ([14]; Imexon 10 μM): 1
- selectivity among tumor cell types [17]: selective for multiple myeloma
- activity against human tumor cell lines in SCID mice [18]: active
- IC50 (L1210 leukemia, Mdr; [28]): 477 µM
- IC50 (L1210 leukemia, Sens; [29]): 612 µM
- cytotoxicity in clonogenic assay (fresh human tumor cells): selectively cytotoxic to multiple myeloma
